Assay: Agonist activity beta2-adrenergic receptor in rat ventricular myocytes assessed as cell contraction following electrical stimulation by optical edge tracking method using photodiode array

SMILES | EC50 [nM]
CC[C@H](Cc1ccc(O)cc1)NC[C@H](O)c1cc(O)cc(O)c1 | 8550
C[C@H](Cc1ccc2ccccc2c1)NC[C@H](O)c1cc(O)cc(O)c1 | 133
COc1ccc(C[C@@H](C)NC[C@H](O)c2cc(O)cc(O)c2)c2ccccc12 | 16

Reference: BindingDB's records for doi:10.1016/j.bmc.2009.11.062 (Medical University of Lublin, 2010)
